Measured values taken from US7482008B1, “Human T cell reactive feline protein (TRFP) isolated from house dust and uses therefor” (Merck Patent GmbH, priority 1989, dated 2009).

What was measured:
[1] = tested on: T cells from cat allergic patients; test: T cell proliferation of TRFP-primed T cells from cat allergic patients (tritiated thymidine), Example 5 Part A; type: cell-based, human
Description: Peripheral blood mononuclear cells (PBMC) were purified from 60 ml of heparinized blood from cat allergic patients. PBMC were subsequently treated as described below, although in individual cases, the length of time of cultivation with IL-2 and/or IL-4 and the specific peptides used for stimulation varied.
10 ml of PBMC from patient 131 at 10^6 /ml were cultured at 37° C. for 7 days in the presence of 5 μg purified TRFP/ml RPMI-1640 supplemented with 5% pooled human AB serum. Viable cells were purified by Ficoll-Hypaque centrifugation and cultured for three weeks at 5 units recombinant human IL-2/ml and 5 units recombinant human IL-4/ml. The resting T cells were then restimulated (secondary) with 5 μg TRFP at 2×10^5/ml in the presence of irradiated (3500 Rads) autologous PBMC at a concentration of 5×10^5/ml for three days, purified by Ficoll-Hypaque centrifugation and grown in 5 units IL-2 and 5 units IL-4/ml for two weeks. For assay, 2×10^4 resting secondary T cells were restimulated (tertiary) in the presence of 5×10^4 irradiated (3500 Rads) autologous PBMC or 2×10^4 transformed B cells (20,000 Rads) with various concentrations of allergens or their fragments in a volume of 200 microliters in a 96-well round bottom assay plates for 3 days. Each well then received 1 μCurie tritiated (methyl) thymidine for 16 hours. The counts incorporated were collected onto glass fiber filters and processed for liquid scintillation counting.
Antigens used: T cell reactive feline protein (TRFP), Hollister-Stier cat epithelium skin test reagent (CST), IPC ragweed pollen extract (pollen), and synthetic peptides derived from TRFP protein sequence (See FIGS. 6 and 7). Positive T cell proliferation is for these experiments was considered to be greater than 2.5 times the media control (T cells and antigen presenting cells alone).
Alternatively, PBMC were treated as follows: The primary stimulated cells were cultured in IL-2/IL-4 for two weeks. The resting T cells derived from this culture were tested in a secondary assay with some, but not all, of the above allergens. […] This type of epitope analysis has allowed the definition of T cell epitopes present in TRFP.

[2] = tested on: PBMC from cat-allergic patients; test: IL-2, IFN-gamma and IL-4 measurements by PCR in primary 36 hour PBMC culture; type: cell-based, human; conditions: Patient 409 primary 36 hour culture; for STIMULATION INDEX IFN-γ / STIMULATION INDEX IL-4: PCR, vs medium control
Description: Peripheral blood mononuclear cells (PBMC) were purified from cat-allergic patients as described in Example 5. Five×10^6 PBMC were cultured at 2×10^6/ml for 36 hours in the presence of medium only, 20 μg purified TRFP/ml or 50 μg peptide/ml. The cells were then washed two times with phosphate buffered saline (PBS, pH 7.2) and lysed with 2 ml […] guanidinium isothiocyanate, 0.5% Sarkosyl, 5 mM sodium citrate, 0.1 M 2-mercaptoethanol, pH 7.0. The lysate was then forced through a 26 gauge needle to shear genomic DNA, and was layered onto a 2 ml cushion of 5.7 M CsCl, 0.01 M EDTA, pH 7.5 in diethylpyrocarbonate (DEPC)-treated water. The lysate was centrifuged at 35,000 RPM in a Beckman SW41 rotor for 18 hours at 20° C. The RNA pellet was resuspended in 0.4 ml TE (10 mM Tris, 1 mM EDTA), pH 7.5, 0.1% SDS, and then extracted three times with 0.5 ml phenol/0.2 ml chloroform. The RNA was then precipitated on dry ice with 2.5 volumes ice-cold ethanol, 1/10 volume 3 M sodium acetate, pH 5.2 in DEPC-treated water, rinsed once with 70% ethanol in DEPC-treated water, and dried. The RNA pellet was resuspended in 2 μl TE., pH 7.5 in DEPC-treated water.
Total cellular RNA was converted to cDNA using the Superscript kit (BRL, Bethesda, Md.). Two μl of RNA were added to one μl oligo (dT)12-18 (500 μg/ml) and 9 μl water. The sample was heated to 70° C. for 10 minutes and ice quenched. Four μl 5× buffer were added to the sample along with 2 μl 0.1 M DTT and 1 μl dNTP mix (10 mM each, dATP, dCTP, dGTP, dTTP). One μl reverse transcriptase (200U) was added and the reaction was carried out for one hour at 42° C. The reaction was terminated by incubation of the sample at 90° C. for five minutes and stored at −80° C.
Ten-fold serial dilutions of T cell cDNA in 10 mM TRIS, pH 7.5 were amplified using the standard kit and protocol recommended by Perkin Elmer-Cetus (Redwood City, Calif.). Each sample received 26.65 μl water, 5 μl ×PCR buffer, 8 μl of dNTP mix (1.25 mM each of dATP, dCTP, dGTP and dTTP), 0.1 μl alpha 32P-dCTP (3000 Ci/mmol), 0.25 μl AmpliTaq, 5 μl cDNA and 5 μl cytokine-specific 5′ and 3′ primers (20 micromolar). The primers used for most cytokines and the beta-actin control were purchased from Clontech (Redwood City, Calif.). The human IL-4 primers were purchased from Research Genetics (Huntsville, Ala.) and had the following sequences: 5′ hIL-4 primer (SEQ. ID. NO: 58):
The PCR products were extracted once with 25 μl chloroform and 25 μl of each sample were then electrophoresed on an 8% polyacrylamide gel at 250 V. The gel was dried and exposed to pre-flashed x-ray film. Several exposures of each gel were then scanned using a Shimadzu flying spot laser densitometer. Values on the linear portion of the titrations were then compared to the medium control values to obtain a stimulation index for each sample. Primers for beta-actin were included as a control for general cDNA levels in each sample. Where the medium control values are not detectable, the lowest measurable response was set at 1.00. In other experiments, levels of cytokine cDNA can be compared directly with previously amplified cytokine specific cDNAs as standards. Thus, absolute levels of particular cytokine cDNAs can be compared from one sample to another and from one experiment to another. In this experiment, IL-2, IL-4 and IFN-gamma levels were measured. As shown, in this particular cat-allergic patient, peptides such as Fel 18 generate more IL-4 than certain other TRFP-derived peptides (Fel 14 and Fel 17). This analysis will be expanded to studies of other cytokines involved in the generation of allergic responses, such as IL-5, IL-8, IL-9, TGF-beta. Samples of cDNA from each treatment can also be saved for later analysis once additional cytokines are identified and sequenced. Peptides generating a spectrum of cytokines favorable for the generation of allergic responses can be avoided for therapeutic use in the treatment of cat allergy. […]

Row | Substance | T cell stimulatory activity ([1]; summary in words of Tables 2 and 3) | PI ([1]; Table 2, chain #1 TRFP peptides, average SI of responding patients multiplied by percent of patients with positive response (SI >2.5)) | SI ([1]; Table 2, chain #1 TRFP peptides, average cpm with antigen divided by cpm of T cells and APC alone, responding patients) | RATIO IFN/IL-4 [2] | STIMULATION INDEX IFN-γ [2] | STIMULATION INDEX IL-4 [2]
1 | peptide X: amino acid residues 7-30 from chain 1 of TRFP (SEQ. ID. NO: 17); Table 2 lists Fel 8-3 as 7-33 (KRDVDLFLTGTPDEYVEQVAQYKALPV) | powerful activity | – | – | – | – | –
2 | NARILKNCVDAKMTEEDKE [Fel 4, TRFP chain 1 amino acids 37-55] | – | 601 | 7.7 | 2.6 | 25.8 | 10.0
3 | TRFP: human T cell reactive feline protein affinity purified from house dust; two covalently linked chains | – | – | – | 0.9 | 2.1 | 3.8
